Drawing on patent US9527832B2, “Substituted condensed pyrimidine compounds” (GRÜNENTHAL GMBH, priority 2013, dated 2016), this text covers inhibition and IC50 for 26 molecules.

Usually inhibition stands for the drop in the measured response relative to a control, in per cent. For orientation: IC50 means the midpoint of a concentration-inhibition curve.

Where “and” joins values, the source holds several entries; their conditions need not be identical. Identical values can stand only once. Like-named read-outs stand apart in the source and are kept apart here.

The assay has as its target T1, human PDE4B1 (Homo sapiens, UniProt Q07343).
T1 construct: host or cells: Sf9 cells
In words: cAMP HTRF assay to determine the activity of hPDE4B1. Type of assay: biochemical. The settings on record: for inhibition at 1 µM: Percentage inhibition of PDE4B at 1 μM test concentration; for IC50: reported as ranges. Summed up: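 Sf9-expressed recombinant human PDE4B1 (4.8 U) in Tris-HCl/MgCl2/DTT/Tween 20 buffer pH 7.8, with cAMP at 40 nM final, 30 min at room temperature. Reaction stopped with IBMX 1 mM; remaining cAMP detected by HTRF (665/620 nm ratio). IC50 from eight-point dose-response, n=2.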
For orientation: TR-FRET usually uses a lanthanide donor and a delayed reading to cut background.

Where [1] appears, read: dose response measurements with eight concentrations, read-out: IC50.

T1 sequence (Q07343 whole entry): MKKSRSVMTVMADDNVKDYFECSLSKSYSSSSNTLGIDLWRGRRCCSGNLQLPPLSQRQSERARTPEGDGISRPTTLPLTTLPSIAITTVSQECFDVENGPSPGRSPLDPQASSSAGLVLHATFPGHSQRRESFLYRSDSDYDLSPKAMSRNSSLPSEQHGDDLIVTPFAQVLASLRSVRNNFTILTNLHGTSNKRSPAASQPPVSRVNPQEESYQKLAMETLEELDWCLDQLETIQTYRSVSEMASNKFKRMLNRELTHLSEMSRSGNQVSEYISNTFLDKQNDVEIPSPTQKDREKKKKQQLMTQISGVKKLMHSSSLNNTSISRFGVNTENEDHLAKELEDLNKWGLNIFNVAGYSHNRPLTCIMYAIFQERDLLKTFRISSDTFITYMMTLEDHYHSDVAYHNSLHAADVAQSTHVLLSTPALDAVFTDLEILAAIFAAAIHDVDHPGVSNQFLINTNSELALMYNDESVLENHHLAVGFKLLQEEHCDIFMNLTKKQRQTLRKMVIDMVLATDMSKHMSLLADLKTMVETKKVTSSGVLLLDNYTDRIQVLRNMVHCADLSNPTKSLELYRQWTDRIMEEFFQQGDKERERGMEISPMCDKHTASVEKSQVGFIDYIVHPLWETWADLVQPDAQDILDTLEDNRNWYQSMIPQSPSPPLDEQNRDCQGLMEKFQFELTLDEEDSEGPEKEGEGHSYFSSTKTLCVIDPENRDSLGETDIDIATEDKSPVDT

In the case of `COc1ccc(-c2nc3c(c(N4CCc5ccc(OCC(=O)N6CCCC6)cc54)n2)C[S+]([O-])C3)cc1F` (stereo not drawn) [Compound No. 2-119, 2-((1-(2-(3-Fluoro-4-methoxyphenyl)-6-oxido-5,7-dihydrothieno[3,4-d]pyrimidin-4-yl)indolin-6-yl)oxy)-1-(pyrrolidin-1-yl)ethanone], the inhibition at 1 µM was determined as 107%.

Regarding `O=C(COc1ccc2c(c1)N(c1nc(-c3ccc(F)s3)nc3c1C[S+]([O-])C3)CC2)N1CCCC1` (stereo not drawn) [Compound No. 2-120, 2-((1-(2-(5-Fluorothiophen-2-yl)-6-oxido-5,7-dihydrothieno[3,4-d]pyrimidin-4-yl)indolin-6-yl)oxy)-1-(pyrrolidin-1-yl)ethanone], the inhibition at 1 µM was determined as 116%.

For `COc1ccc(-c2nc3c(c(N4CCc5ccc(OCC(=O)N6CCCC6)cc54)n2)C[S+]([O-])C3)cc1` (stereo not drawn) [Compound No. 2-121, 2-((1-(2-(4-Methoxyphenyl)-6-oxido-5,7-dihydrothieno[3,4-d]pyrimidin-4-yl)indolin-6-yl)oxy)-1-(pyrrolidin-1-yl)ethanone], the inhibition at 1 µM is 111%.

Take `O=C(COc1ccc2c(c1)N(c1nc(-c3ccc(Cl)s3)nc3c1C[S+]([O-])C3)CC2)N1CCC1` (stereo not drawn) [Compound No. 2-122, 1-(Azetidin-1-yl)-2-((1-(2-(5-chlorothiophen-2-yl)-6-oxido-5,7-dihydrothieno[3,4-d]pyrimidin-4-yl)indolin-6-yl)oxy)ethanone]: the inhibition at 1 µM came out at 40%.

With `CN1CCN(C(=O)COc2ccc3c(c2)N(c2nc(-c4ccc(Cl)s4)nc4c2CS(=O)(=O)C4)CC3)CC1` [Compound No. 2-123, 2-((1-(2-(5-Chlorothiophen-2-yl)-6,6-dioxido-5,7-dihydrothieno[3,4-d]pyrimidin-4-yl)indolin-6-yl)oxy)-1-(4-methylpiperazin-1-yl) ethanone], the inhibition at 1 µM came to 95%. Where the note is “IC50, dose response measurements with eight concentrations”, this molecule came in with an IC50 of under 0.1 µM.

In the case of `O=C(COc1ccc2c(c1)N(c1nc(-c3ccc(Cl)s3)nc3c1CS(=O)(=O)C3)CC2)N1CCC1` [Compound No. 2-124, 1-(Azetidin-1-yl)-2-((1-(2-(5-chlorothiophen-2-yl)-6,6-dioxido-5,7-dihydrothieno[3,4-d]pyrimidin-4-yl)indolin-6-yl)oxy)ethanone], the inhibition at 1 µM was 104%. For the same molecule, under setting [1], the IC50 is under 0.1 µM.

For `O=C(COc1ccc2c(c1)N(c1nc(-c3ccc(Cl)s3)nc3c1CS(=O)(=O)C3)CC2)N1CCOCC1` [Compound No. 2-125, 2-((1-(2-(5-Chlorothiophen-2-yl)-6,6-dioxido-5,7-dihydrothieno[3,4-d]pyrimidin-4-yl)indolin-6-yl)oxy)-1-morpholinoethanone], the inhibition at 1 µM turned out to be 85%. Besides, the IC50 under setting [1] is under 0.1 µM.

On to `O=C(COc1ccc2c(c1)N(c1nc(-c3ccc(Cl)s3)nc3c1CS(=O)(=O)C3)CC2)N1CCCC1` [Compound No. 2-126, 2-((1-(2-(5-Chlorothiophen-2-yl)-6,6-dioxido-5,7-dihydrothieno[3,4-d]pyrimidin-4-yl)indolin-6-yl)oxy)-1-(pyrrolidin-1-yl)ethanone], for which the inhibition at 1 µM amounted to 104%. The IC50 under setting [1] was under 0.1 µM.

For the molecule `O=C(COc1ccc2c(c1)N(c1nc(-c3ccc(Cl)s3)nc3c1CCC3)CC2)N1CCC1` [Compound No. 2-127, 1-(Azetidin-1-yl)-2-((1-(2-(5-chlorothiophen-2-yl)-6,7-dihydro-5H-cyclopenta[d]pyrimidin-4-yl)indolin-6-yl)oxy)ethanone], the inhibition at 1 µM is 43%.

On to `O=C(COc1ccc2c(c1)N(c1nc(-c3ccc(Cl)s3)nc3c1CCC3)CC2)N1CCOCC1` [Compound No. 2-128, 2-((1-(2-(5-Chlorothiophen-2-yl)-6,7-dihydro-5H-cyclopenta[d]pyrimidin-4-yl)indolin-6-yl)oxy)-1-morpholinoethanone], for which the inhibition at 1 µM came out at 85%. Further, the IC50 under setting [1] is 0.1 to 1 µM.

As to `CN1CCN(C(=O)COc2ccc3c(c2)N(c2nc(-c4ccc(Cl)s4)nc4c2CCC4)CC3)CC1` [Compound No. 2-129, 2-((1-(2-(5-Chlorothiophen-2-yl)-6,7-dihydro-5H-cyclopenta[d]pyrimidin-4-yl)indolin-6-yl)oxy)-1-(4-methylpiperazin-1-yl)ethanone], the inhibition at 1 µM was found to be 48%.

Regarding `O=C(COc1ccc2c(c1)N(c1nc(-c3ccncc3)nc3c1CS(=O)(=O)C3)CC2)N1CCCC1` [Compound No. 2-130, 2-((1-(6,6-Dioxido-2-(pyridin-4-yl)-5,7-dihydrothieno[3,4-d]pyrimidin-4-yl)indolin-6-yl)oxy)-1-(pyrrolidin-1-yl)ethanone], the inhibition at 1 µM is 87%. For the same molecule, the IC50 under setting [1] was under 0.1 µM.

As for `O=C(COc1ccc2c(c1)N(c1nc(-c3ccncc3)nc3c1CS(=O)(=O)C3)CC2)N1CCC1` [Compound No. 2-131, 1-(Azetidin-1-yl)-2-((1-(6,6-dioxido-2-(pyridin-4-yl)-5,7-dihydrothieno[3,4-d]pyrimidin-4-yl)indolin-6-yl)oxy)ethanone], the inhibition at 1 µM came out at 90%. In addition, under setting [1], the concentration for half-maximal inhibition (IC50) was under 0.1 µM.

On to `CN(C)C(=O)COc1ccc2c(c1)N(c1nc(-c3ccncc3)nc3c1CS(=O)(=O)C3)CC2` [Compound No. 2-132, 2-((1-(6,6-Dioxido-2-(pyridin-4-yl)-5,7-dihydrothieno[3,4-d]pyrimidin-4-yl)indolin-6-yl)oxy)-N,N-dimethylacetamide], for which the inhibition at 1 µM was 91%. Under setting [1], the IC50 was under 0.1 µM.

For the molecule `O=C(COc1ccc2c(c1)N(c1nc(-c3ccncc3)nc3c1C[S+]([O-])C3)CC2)N1CCCC1` (stereo not drawn) [Compound No. 2-133, 2-((1-(6-Oxido-2-(pyridin-4-yl)-5,7-dihydrothieno[3,4-d]pyrimidin-4-yl)indolin-6-yl)oxy)-1-(pyrrolidin-1-yl)ethanone], the inhibition at 1 µM amounted to 94%. Besides, the IC50 under setting [1] was under 0.1 µM.

`O=C(COc1ccc2c(c1)N(c1nc(-c3ccncc3)nc3c1C[S+]([O-])C3)CC2)N1CCC1` (stereo not drawn) [Compound No. 2-134, 1-(Azetidin-1-yl)-2-((1-(6-oxido-2-(pyridin-4-yl)-5,7-dihydrothieno[3,4-d]pyrimidin-4-yl)indolin-6-yl)oxy)ethanone]: the inhibition at 1 µM stood at 77%. Also, under setting [1], the IC50 was under 0.1 µM.

As for `CN(C)C(=O)COc1ccc2c(c1)N(c1nc(-c3ccncc3)nc3c1C[S+]([O-])C3)CC2` (stereo not drawn) [Compound No. 2-135, N,N-Dimethyl-2-((1-(6-oxido-2-(pyridin-4-yl)-5,7-dihydrothieno[3,4-d]pyrimidin-4-yl)indolin-6-yl)oxy)acetamide], the inhibition at 1 µM worked out at 97%. Under setting [1], the half-maximal inhibitory concentration (IC50) was under 0.1 µM.

For the molecule `CN(C)C(=O)COc1ccc2c(c1)N(c1nc(-c3cccnc3)nc3c1CS(=O)(=O)C3)CC2` [Compound No. 2-136, 2-((1-(6,6-Dioxido-2-(pyridin-3-yl)-5,7-dihydrothieno[3,4-d]pyrimidin-4-yl)indolin-6-yl)oxy)-N,N-dimethylacetamide], the inhibition at 1 µM is 98%. Under setting [1], the IC50 was under 0.1 µM.

For `CN(C)C(=O)COc1ccc2c(c1)N(c1nc(-c3cccnc3)nc3c1C[S+]([O-])C3)CC2` (stereo not drawn) [Compound No. 2-137, N,N-Dimethyl-2-((1-(6-oxido-2-(pyridin-3-yl)-5,7-dihydrothieno[3,4-d]pyrimidin-4-yl)indolin-6-yl)oxy)acetamide], the inhibition at 1 µM came to 97%. In addition, the IC50 under setting [1] is under 0.1 µM.

For `COc1ccc(-c2nc3c(c(N4CCc5ccc(OCC(=O)N(C)C)cc54)n2)C[S+]([O-])C3)cn1` (stereo not drawn) [Compound No. 2-139, 2-((1-(2-(6-Methoxypyridin-3-yl)-6-oxido-5,7-dihydrothieno[3,4-d]pyrimidin-4-yl)indolin-6-yl)oxy)-N,N-dimethylacetamide], the IC50 under setting [1] was under 0.1 µM.

As for `Cc1ncc(-c2nc3c(c(N4CCc5ccc(OCC(=O)N(C)C)cc54)n2)C[S+]([O-])C3)s1` (stereo not drawn) [Compound No. 2-140, N,N-Dimethyl-2-((1-(2-(2-methylthiazol-5-yl)-6-oxido-5,7-dihydrothieno[3,4-d]pyrimidin-4-yl)indolin-6-yl)oxy)acetamide], the inhibition at 1 µM stood at 95%. Moreover, under setting [1], the IC50 is under 0.1 µM.

In the case of `COc1ccc(-c2nc3c(c(N4CCc5ccc(OCC(=O)N(C)C)cc54)n2)C[S+]([O-])C3)nc1` (stereo not drawn) [Compound No. 2-141, 2-((1-(2-(5-Methoxypyridin-2-yl)-6-oxido-5,7-dihydrothieno[3,4-d]pyrimidin-4-yl)indolin-6-yl)oxy)-N,N-dimethylacetamide], the inhibition at 1 µM is 98%. Also, the IC50 under setting [1] is under 0.1 µM.

For `COc1ccc(-c2nc3c(c(N4CCc5ccc(OCC(=O)N(C)C)cc54)n2)CS(=O)(=O)C3)nc1` [Compound No. 2-143, 2-((1-(2-(5-Methoxypyridin-2-yl)-6,6-dioxido-5,7-dihydrothieno[3,4-d]pyrimidin-4-yl)indolin-6-yl)oxy)-N,N-dimethylacetamide], the inhibition at 1 µM stood at 87%. Moreover, the IC50 under setting [1] was 0.1 to 1 µM and < 0.1 µM.

In the case of `N#CCOc1ccc2c(c1)N(c1nc(-c3ccc(Cl)s3)nc3c1CS(=O)(=O)C3)CC2` [Compound No. 3-1, 2-((1-(2-(5-Chlorothiophen-2-yl)-6,6-dioxido-5,7-dihydrothieno[3,4-d]pyrimidin-4-yl)indolin-6-yl)oxy)acetonitrile], the concentration for half-maximal inhibition (IC50) under setting [1] is 0.1 to 1 µM.

Turning to `CN(C)CCOc1ccc2c(c1)N(c1nc(-c3ccc(Cl)s3)nc3c1CS(=O)(=O)C3)CC2` [Compound No. 3-3, 2-(5-Chlorothiophen-2-yl)-4-(6-(2-(dimethylamino)ethoxy)indolin-1-yl)-5,7-dihydrothieno[3,4-d]pyrimidine 6,6-dioxide], the IC50 under setting [1] lay in the range of 0.1 to 1 µM.

On to `CCNC(=O)Cc1ccc2c(c1)CCN2c1nc(-c2ccc(Cl)s2)nc2c1CS(=O)(=O)C2` [Compound No. 3-4, 2-(1-(2-(5-Chlorothiophen-2-yl)-6,6-dioxido-5,7-dihydrothieno[3,4-d]pyrimidin-4-yl)indolin-5-yl)-N-ethylacetamide], for which the IC50 under setting [1] was in the range of 0.1 to 1 µM.
